Source: publication PMC10817531, “Chlorinated Enyne Fatty Acid Amides from a Marine Cyanobacterium: Discovery of Taveuniamides L-M and Pharmacological Characterization of Taveuniamide F as a GPCR Antagonist with CNR1 Selectivity” (Marine Drugs, 2023)

Experiments:
Experiment in all cases: PathHunter β-arrestin GpcrMAX assay
Format in all cases: cell-based
[1] = target: CALCRL-RAMP2 (Homo sapiens, UniProt O60895+Q16602)
Protocol: (§1) GpcrMAX panel biosensor assays were used to characterize taveuniamide F (4, 20 µM) (agonist and antagonist mode). The experiments were carried out by DiscoveRx Corporation (Fremont, CA, USA) as described before, using PathHunter β-arrestin enzyme fragment complementation (EFC) technology.

[2] = target: T1, HTR5A (Homo sapiens, UniProt P47898)
T1 construct: purchased DiscoveRx (Eurofins) gpcrMAX PathHunter β-arrestin panel
Protocol: as §1

[3] = target: T2, CCR6 (Homo sapiens, UniProt P51684)
T2 construct: purchased DiscoveRx (Eurofins) gpcrMAX PathHunter β-arrestin panel
Protocol: as §1

[4] = target: T3, CXCR4 (Homo sapiens, UniProt P61073)
T3 construct: purchased DiscoveRx (Eurofins) gpcrMAX PathHunter β-arrestin panel
Protocol: as §1

[5] = target: T4, DRD3 (Homo sapiens, UniProt P35462)
T4 construct: purchased DiscoveRx (Eurofins) gpcrMAX PathHunter β-arrestin panel
Protocol: as §1

[6] = target: T5, MC5R (Homo sapiens, UniProt P33032)
T5 construct: purchased DiscoveRx (Eurofins) gpcrMAX PathHunter β-arrestin panel
T5 sequence (P33032 whole entry): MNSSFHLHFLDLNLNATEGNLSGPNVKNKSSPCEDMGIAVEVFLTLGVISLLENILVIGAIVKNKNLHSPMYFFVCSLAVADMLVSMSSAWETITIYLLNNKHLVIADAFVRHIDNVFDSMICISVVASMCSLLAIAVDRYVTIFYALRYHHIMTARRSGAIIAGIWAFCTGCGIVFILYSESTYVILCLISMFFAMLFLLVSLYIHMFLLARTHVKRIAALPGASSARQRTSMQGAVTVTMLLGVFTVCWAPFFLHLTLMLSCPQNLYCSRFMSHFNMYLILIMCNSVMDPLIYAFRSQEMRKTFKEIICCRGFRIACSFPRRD
Protocol: as §1

[7] = target: CALCRL-RAMP3 (Homo sapiens, UniProt O60896+Q16602)
CALCRL-RAMP3, sequence (Q16602 23-461): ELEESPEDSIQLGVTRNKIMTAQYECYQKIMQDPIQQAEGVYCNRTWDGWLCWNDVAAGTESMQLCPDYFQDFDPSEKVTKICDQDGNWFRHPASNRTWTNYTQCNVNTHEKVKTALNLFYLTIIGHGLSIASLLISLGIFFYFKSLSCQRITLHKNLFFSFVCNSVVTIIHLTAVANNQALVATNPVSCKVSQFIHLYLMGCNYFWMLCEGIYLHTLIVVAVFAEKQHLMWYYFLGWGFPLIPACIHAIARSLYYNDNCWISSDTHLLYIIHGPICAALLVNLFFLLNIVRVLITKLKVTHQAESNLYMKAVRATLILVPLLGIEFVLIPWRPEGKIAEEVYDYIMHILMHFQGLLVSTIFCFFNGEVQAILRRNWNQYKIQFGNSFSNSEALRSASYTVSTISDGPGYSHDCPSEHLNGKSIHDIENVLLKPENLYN
CALCRL-RAMP3, sequence (O60896 24-148 partner): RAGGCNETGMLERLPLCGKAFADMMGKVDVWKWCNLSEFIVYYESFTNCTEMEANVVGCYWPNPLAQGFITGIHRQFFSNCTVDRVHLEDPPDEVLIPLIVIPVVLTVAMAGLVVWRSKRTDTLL
Protocol: as §1

[8] = target: T6, PTHR1 (Homo sapiens, UniProt Q03431)
T6 construct: purchased DiscoveRx (Eurofins) gpcrMAX PathHunter β-arrestin panel
Protocol: as §1

[9] = target: T7, TRHR (Homo sapiens, UniProt P34981)
T7 construct: purchased DiscoveRx (Eurofins) gpcrMAX PathHunter β-arrestin panel
T7 sequence (P34981 whole entry): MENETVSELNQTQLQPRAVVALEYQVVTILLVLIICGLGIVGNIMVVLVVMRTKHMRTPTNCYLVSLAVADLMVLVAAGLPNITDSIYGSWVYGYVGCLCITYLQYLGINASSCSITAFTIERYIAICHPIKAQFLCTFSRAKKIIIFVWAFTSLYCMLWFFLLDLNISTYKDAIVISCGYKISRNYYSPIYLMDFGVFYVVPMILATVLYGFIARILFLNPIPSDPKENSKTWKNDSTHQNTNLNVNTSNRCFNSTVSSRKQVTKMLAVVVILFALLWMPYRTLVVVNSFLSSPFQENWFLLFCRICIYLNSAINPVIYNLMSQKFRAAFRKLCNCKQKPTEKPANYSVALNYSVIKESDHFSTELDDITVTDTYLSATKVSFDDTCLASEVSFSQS
Protocol: as §1

[10] = target: T8, CMKLR1 (Homo sapiens, UniProt Q99788)
T8 construct: purchased DiscoveRx (Eurofins) gpcrMAX PathHunter β-arrestin panel
T8 sequence (Q99788 whole entry): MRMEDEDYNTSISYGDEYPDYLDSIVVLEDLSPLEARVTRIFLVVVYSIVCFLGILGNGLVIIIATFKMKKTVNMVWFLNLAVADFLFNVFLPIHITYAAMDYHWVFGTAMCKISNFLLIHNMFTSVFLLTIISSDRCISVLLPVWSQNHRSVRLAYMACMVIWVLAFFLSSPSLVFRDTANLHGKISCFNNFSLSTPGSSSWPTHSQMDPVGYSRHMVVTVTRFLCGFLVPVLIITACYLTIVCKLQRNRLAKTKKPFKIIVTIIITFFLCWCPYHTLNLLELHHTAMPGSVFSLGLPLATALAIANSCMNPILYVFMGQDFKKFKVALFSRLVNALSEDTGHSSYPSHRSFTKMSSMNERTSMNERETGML
Protocol: as §1

[11] = target: T9, ADRB1 (Homo sapiens, UniProt P08588)
T9 construct: purchased DiscoveRx (Eurofins) gpcrMAX PathHunter β-arrestin panel
Protocol: as §1

[12] = target: T10, TBXA2R (Homo sapiens, UniProt P21731)
T10 construct: purchased DiscoveRx (Eurofins) gpcrMAX PathHunter β-arrestin panel
Protocol: as §1

[13] = target: T11, NPBWR1 (Homo sapiens, UniProt P48145)
T11 construct: purchased DiscoveRx (Eurofins) gpcrMAX PathHunter β-arrestin panel
Protocol: as §1

[14] = target: T12, EDG6 (Homo sapiens, UniProt O95977)
T12 construct: purchased DiscoveRx (Eurofins) gpcrMAX PathHunter β-arrestin panel
Protocol: as §1

[15] = target: T13, PRLHR (Homo sapiens, UniProt P49683)
T13 construct: purchased DiscoveRx (Eurofins) gpcrMAX PathHunter β-arrestin panel
Protocol: as §1

[16] = target: T14, CXCR1 (Homo sapiens, UniProt P25024)
T14 construct: purchased DiscoveRx (Eurofins) gpcrMAX PathHunter β-arrestin panel
Protocol: as §1

[17] = target: T15, PTGER2 (Homo sapiens, UniProt P43116)
T15 construct: purchased DiscoveRx (Eurofins) gpcrMAX PathHunter β-arrestin panel
Protocol: as §1

[18] = target: CALCRL-RAMP1 (Homo sapiens, UniProt O60894+Q16602)
CALCRL-RAMP1, sequence (Q16602 23-461): as the sequence (Q16602 23-461) above
CALCRL-RAMP1, sequence (O60894 27-148 partner): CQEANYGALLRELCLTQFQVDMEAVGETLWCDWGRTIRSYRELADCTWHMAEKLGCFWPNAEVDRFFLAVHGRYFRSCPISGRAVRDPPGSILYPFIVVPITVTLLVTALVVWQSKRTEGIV
Protocol: as §1

[19] = target: T16, OPRL1 (Homo sapiens, UniProt P41146)
T16 construct: purchased DiscoveRx (Eurofins) gpcrMAX PathHunter β-arrestin panel
T16 sequence (P41146 whole entry): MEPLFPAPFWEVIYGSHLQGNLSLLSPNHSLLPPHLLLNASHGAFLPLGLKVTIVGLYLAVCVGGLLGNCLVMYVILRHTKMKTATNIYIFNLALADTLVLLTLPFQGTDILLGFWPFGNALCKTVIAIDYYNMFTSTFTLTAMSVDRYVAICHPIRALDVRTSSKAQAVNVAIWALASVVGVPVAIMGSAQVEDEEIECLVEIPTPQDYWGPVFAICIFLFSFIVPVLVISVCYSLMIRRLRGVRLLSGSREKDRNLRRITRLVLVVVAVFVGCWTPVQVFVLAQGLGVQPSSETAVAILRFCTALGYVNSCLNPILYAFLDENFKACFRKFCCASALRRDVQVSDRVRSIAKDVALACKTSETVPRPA
Protocol: as §1

[20] = target: T17, ADRA2A (Homo sapiens, UniProt P08913)
T17 construct: purchased DiscoveRx (Eurofins) gpcrMAX PathHunter β-arrestin panel
T17 sequence (P08913 whole entry): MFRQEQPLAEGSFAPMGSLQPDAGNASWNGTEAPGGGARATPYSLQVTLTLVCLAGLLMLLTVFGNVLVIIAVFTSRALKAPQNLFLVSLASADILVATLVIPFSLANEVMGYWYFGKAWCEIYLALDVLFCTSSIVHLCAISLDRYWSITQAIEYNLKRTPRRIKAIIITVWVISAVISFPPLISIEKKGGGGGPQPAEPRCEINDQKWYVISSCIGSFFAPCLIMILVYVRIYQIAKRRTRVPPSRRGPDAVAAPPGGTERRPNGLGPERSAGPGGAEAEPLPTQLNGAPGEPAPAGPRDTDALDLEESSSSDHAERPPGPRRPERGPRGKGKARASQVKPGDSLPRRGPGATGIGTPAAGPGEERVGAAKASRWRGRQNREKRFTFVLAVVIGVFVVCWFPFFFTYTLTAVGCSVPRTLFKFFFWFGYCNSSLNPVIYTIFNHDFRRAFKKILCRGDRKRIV
Protocol: as §1

[21] = target: T18, P2RY12 (Homo sapiens, UniProt Q9H244)
T18 construct: purchased DiscoveRx (Eurofins) gpcrMAX PathHunter β-arrestin panel
T18 sequence (Q9H244 whole entry, one chain of several): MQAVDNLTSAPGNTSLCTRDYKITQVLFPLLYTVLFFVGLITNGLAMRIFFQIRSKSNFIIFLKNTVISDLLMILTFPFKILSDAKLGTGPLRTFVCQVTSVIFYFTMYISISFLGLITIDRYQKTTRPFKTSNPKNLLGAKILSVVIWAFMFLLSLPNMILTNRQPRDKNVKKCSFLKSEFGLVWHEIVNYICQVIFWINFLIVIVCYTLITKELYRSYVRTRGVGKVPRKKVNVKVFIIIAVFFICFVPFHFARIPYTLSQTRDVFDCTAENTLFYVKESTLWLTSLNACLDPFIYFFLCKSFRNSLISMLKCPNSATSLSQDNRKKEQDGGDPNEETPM
Protocol: as §1

[22] = target: T19, CXCR6 (Homo sapiens, UniProt O00574)
T19 construct: purchased DiscoveRx (Eurofins) gpcrMAX PathHunter β-arrestin panel
Protocol: as §1

[23] = target: T20, MRGPRX2 (Homo sapiens, UniProt Q96LB1)
T20 construct: purchased DiscoveRx (Eurofins) gpcrMAX PathHunter β-arrestin panel
Protocol: as §1

[24] = target: T21, FSHR (Homo sapiens, UniProt P23945)
T21 construct: purchased DiscoveRx (Eurofins) gpcrMAX PathHunter β-arrestin panel
Protocol: as §1

[25] = target: T22, MCHR2 (Homo sapiens, UniProt Q969V1)
T22 construct: purchased DiscoveRx (Eurofins) gpcrMAX PathHunter β-arrestin panel
Protocol: as §1

[26] = target: T23, HTR1E (Homo sapiens, UniProt P28566)
T23 construct: purchased DiscoveRx (Eurofins) gpcrMAX PathHunter β-arrestin panel
Protocol: as §1

[27] = target: T24, CCR3 (Homo sapiens, UniProt P51677)
T24 construct: purchased DiscoveRx (Eurofins) gpcrMAX PathHunter β-arrestin panel
Protocol: as §1

[28] = target: T25, CCKAR (Homo sapiens, UniProt P32238)
T25 construct: purchased DiscoveRx (Eurofins) gpcrMAX PathHunter β-arrestin panel
Protocol: as §1

[29] = target: AGTRL1 (Homo sapiens, UniProt P35414)
AGTRL1, sequence (P35414 whole entry): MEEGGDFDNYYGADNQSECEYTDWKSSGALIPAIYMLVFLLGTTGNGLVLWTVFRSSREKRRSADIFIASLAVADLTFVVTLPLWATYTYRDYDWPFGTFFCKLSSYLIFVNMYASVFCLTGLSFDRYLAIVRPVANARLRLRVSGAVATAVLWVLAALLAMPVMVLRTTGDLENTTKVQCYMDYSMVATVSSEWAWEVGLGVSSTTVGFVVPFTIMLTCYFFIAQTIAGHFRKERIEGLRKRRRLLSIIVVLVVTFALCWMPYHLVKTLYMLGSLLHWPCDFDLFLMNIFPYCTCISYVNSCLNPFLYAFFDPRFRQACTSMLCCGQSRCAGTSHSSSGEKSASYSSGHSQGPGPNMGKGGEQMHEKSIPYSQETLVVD
Protocol: as §1

[30] = target: T26, NPBWR2 (Homo sapiens, UniProt P48146)
T26 construct: purchased DiscoveRx (Eurofins) gpcrMAX PathHunter β-arrestin panel
T26 sequence (P48146 whole entry): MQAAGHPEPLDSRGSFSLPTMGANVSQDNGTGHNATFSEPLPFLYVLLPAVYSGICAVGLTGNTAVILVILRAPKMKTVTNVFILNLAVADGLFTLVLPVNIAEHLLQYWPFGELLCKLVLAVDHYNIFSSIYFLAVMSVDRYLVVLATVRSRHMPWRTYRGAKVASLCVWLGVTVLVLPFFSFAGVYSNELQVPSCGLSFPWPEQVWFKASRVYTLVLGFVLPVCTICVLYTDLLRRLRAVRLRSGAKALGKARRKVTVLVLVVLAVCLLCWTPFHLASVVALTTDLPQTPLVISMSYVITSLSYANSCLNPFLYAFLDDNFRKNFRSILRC
Protocol: as §1

[31] = target: T27, ADORA3 (Homo sapiens, UniProt P0DMS8)
T27 construct: purchased DiscoveRx (Eurofins) gpcrMAX PathHunter β-arrestin panel
Protocol: as §1

[32] = target: T28, PTAFR (Homo sapiens, UniProt P25105)
T28 construct: purchased DiscoveRx (Eurofins) gpcrMAX PathHunter β-arrestin panel
Protocol: as §1

[33] = target: T29, LHCGR (Homo sapiens, UniProt P22888)
T29 construct: purchased DiscoveRx (Eurofins) gpcrMAX PathHunter β-arrestin panel
Protocol: as §1

[34] = target: T30, HCRTR2 (Homo sapiens, UniProt O43614)
T30 construct: purchased DiscoveRx (Eurofins) gpcrMAX PathHunter β-arrestin panel
Protocol: as §1

[35] = target: T31, OXER1 (Homo sapiens, UniProt Q8TDS5)
T31 construct: purchased DiscoveRx (Eurofins) gpcrMAX PathHunter β-arrestin panel
T31 sequence (Q8TDS5 whole entry): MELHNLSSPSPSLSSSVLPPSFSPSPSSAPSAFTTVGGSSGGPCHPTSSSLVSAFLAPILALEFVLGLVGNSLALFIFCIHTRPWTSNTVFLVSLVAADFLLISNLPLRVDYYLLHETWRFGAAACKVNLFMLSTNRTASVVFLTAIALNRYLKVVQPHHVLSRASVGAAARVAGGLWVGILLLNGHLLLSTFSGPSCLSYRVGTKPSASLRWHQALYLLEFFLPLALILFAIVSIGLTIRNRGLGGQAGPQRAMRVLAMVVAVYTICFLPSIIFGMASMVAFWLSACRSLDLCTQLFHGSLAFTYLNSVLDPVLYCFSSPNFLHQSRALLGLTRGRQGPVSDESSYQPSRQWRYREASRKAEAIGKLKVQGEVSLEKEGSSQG
Protocol: as §1

[36] = target: T32, EDNRB (Homo sapiens, UniProt P24530)
T32 construct: purchased DiscoveRx (Eurofins) gpcrMAX PathHunter β-arrestin panel
Protocol: as §1

[37] = target: T33, NMBR (Homo sapiens, UniProt P28336)
T33 construct: purchased DiscoveRx (Eurofins) gpcrMAX PathHunter β-arrestin panel
Protocol: as §1

[38] = target: T34, ADRA2C (Homo sapiens, UniProt P18825)
T34 construct: purchased DiscoveRx (Eurofins) gpcrMAX PathHunter β-arrestin panel
Protocol: as §1

[39] = target: T35, HTR1F (Homo sapiens, UniProt P30939)
T35 construct: purchased DiscoveRx (Eurofins) gpcrMAX PathHunter β-arrestin panel
Protocol: as §1

[40] = target: T36, SSTR1 (Homo sapiens, UniProt P30872)
T36 construct: purchased DiscoveRx (Eurofins) gpcrMAX PathHunter β-arrestin panel
T36 sequence (P30872 whole entry): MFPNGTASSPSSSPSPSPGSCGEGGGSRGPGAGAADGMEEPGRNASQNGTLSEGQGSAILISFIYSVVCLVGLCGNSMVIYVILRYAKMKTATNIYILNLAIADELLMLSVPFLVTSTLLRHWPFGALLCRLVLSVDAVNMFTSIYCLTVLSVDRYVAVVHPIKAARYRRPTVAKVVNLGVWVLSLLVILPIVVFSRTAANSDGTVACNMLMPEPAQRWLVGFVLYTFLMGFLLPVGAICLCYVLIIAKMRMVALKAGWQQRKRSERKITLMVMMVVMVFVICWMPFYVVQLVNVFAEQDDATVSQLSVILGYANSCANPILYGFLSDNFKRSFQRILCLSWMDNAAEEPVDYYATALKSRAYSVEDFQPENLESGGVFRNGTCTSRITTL
Protocol: as §1

[41] = target: T37, GPR35 (Homo sapiens, UniProt Q9HC97)
T37 construct: purchased DiscoveRx (Eurofins) gpcrMAX PathHunter β-arrestin panel
Protocol: as §1

[42] = target: T38, DRD4 (Homo sapiens, UniProt P21917)
T38 construct: purchased DiscoveRx (Eurofins) gpcrMAX PathHunter β-arrestin panel
Protocol: as §1

CALCRL-RAMP2, sequence (Q16602 23-461): as the sequence (Q16602 23-461) above
CALCRL-RAMP2, sequence (O60895 43-175 partner): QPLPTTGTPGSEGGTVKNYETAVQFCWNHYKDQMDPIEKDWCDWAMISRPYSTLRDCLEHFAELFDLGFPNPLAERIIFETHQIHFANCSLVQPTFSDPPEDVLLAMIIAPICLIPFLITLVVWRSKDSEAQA

CC(=O)N[C@@H](CCCC#C/C=C/Cl)CCCCCCC(Cl)Cl [Compound 4, taveuniamide F]
inhibition at 20 µM [1]: 13.6% | inhibition at 20 µM [2]: 45.6% | inhibition at 20 µM [3]: 58.2% | inhibition at 20 µM [4]: 43.8% | inhibition at 20 µM [5]: 9.6% | inhibition at 20 µM [6]: 39.8% | inhibition at 20 µM [7]: 19.3% | inhibition at 20 µM [8]: 17.5% | inhibition at 20 µM [9]: 42.8% | inhibition at 20 µM [10]: 21.4% | inhibition at 20 µM [11]: 52.7% | inhibition at 20 µM [12]: -4.4% | inhibition at 20 µM [13]: -12.1% | inhibition at 20 µM [14]: 19.6% | inhibition at 20 µM [15]: 46.6% | inhibition at 20 µM [16]: 15.3% | inhibition at 20 µM [17]: 4.4% | inhibition at 20 µM [18]: 31.2% | inhibition at 20 µM [19]: 5.4% | inhibition at 20 µM [20]: 42.3% | inhibition at 20 µM [21]: 1.4% | inhibition at 20 µM [22]: 33.1% | inhibition at 20 µM [23]: 64.7% | inhibition at 20 µM [24]: 40.5% | inhibition at 20 µM [25]: 21.4% | inhibition at 20 µM [26]: 26.8% | inhibition at 20 µM [27]: 19.2% | inhibition at 20 µM [28]: 10.9% | inhibition at 20 µM [29]: 6.8% | inhibition at 20 µM [30]: 13.7% | inhibition at 20 µM [31]: 1% | inhibition at 20 µM [32]: 14.3% | inhibition at 20 µM [33]: 56.3% | inhibition at 20 µM [34]: 11.6% | inhibition at 20 µM [35]: 18.1% | inhibition at 20 µM [36]: 23% | inhibition at 20 µM [37]: 39.7% | inhibition at 20 µM [38]: 25.1% | inhibition at 20 µM [39]: 41.7% | inhibition at 20 µM [40]: 38.2% | inhibition at 20 µM [41]: 27.1% | inhibition at 20 µM [42]: 20.8%
